Measured values published in patent US11779628B2, “Use of cell-permeable peptide inhibitors of the JNK signal transduction pathway for the treatment of various diseases” (Xigen Inflammation Ltd., priority 2014, dated 2023).

Experiments:
[1] = system: Wistar rats, PAN-induced nephropathy; settings: rat, in vivo
Description: The aim of this study was to evaluate the effects of XG-102 on chronic puromycine aminonucleoside-induced nephropathy in rats during 56 days. Puromycin aminonucleoside (PAN) is a podocyte toxin inducing a loss and fusion of podocytes foot processes. PAN-induced nephropathy is a well-described model of human idiopathic […] syndrome and focal segmental glomerulosclerosis ([…], 2008). The glomerular morphologic changes seen in rats with PAN nephrosis closely resemble those in human minimal change disease (MCD) and focal segmental glomerulosclerosis (FSGS). Intraperitoneal administration of PAN in rats results in a rapid development of […] syndrome, characterized by proteinuria, hypoalbuminemia and hypercholesterolemia (acute phase). This is a well-established animal model of human MCD. […] The slides were stained by hematoxylin/eosin (HE), PAS-methenamine silver and Sirius Red for histological evaluation of morphological alterations, glomerulosclerosis and interstitial fibrosis quantification, respectively. […] Results are expressed by semi-quantitative scoring following to expert histopathologist evaluation. For the histological examination of glomerulosclerosis glomerular changes have been evaluated using a semi quantitative scoring system as described by […]. […] All data have been calculated as mean values±standard error of the mean (s.e.m.). […]

[2] = system: patients after ocular surgery; experiment: Clinical Phase II, post-surgery intraocular inflammation: safety; settings: for AEs considered by the Investigator to be related to Dexamethasone / AEs considered by the Investigator to be related to XG-102: blinded assessment
Procedure: The criteria for evaluation of safety were: • a. Visual acuity by ETDRS method • b. Slit Lamp examination findings • c. The results of the ophthalmic fundus examination • d. Intra Ocular Pressure (IOP) measurements • e. Vital signs (blood pressure (BP), pulse rate (PR) and rhythm) • f. The results of the hematology and chemistry laboratory tests • g. The occurrence of Adverse Events • h. Presence (or not) of XG-102 in plasma 1 hour after the administration of study treatment in a subset of patients (approximately 30).
An AE is therefore any unfavorable and unintended sign, symptom or disease temporally associated with the use of a medicinal product, whether or not considered related to the medicinal product.
A Suspected Unexpected Serious Adverse Reaction (SUSAR) was defined as a suspected adverse reaction related to the treatment that is both unexpected (i.e. not consistent with the expected outcomes of the study treatment being administered) and serious.
Patients were analyzed as treated, i.e. according to the treatment which they received. The safety set was the primary analysis set for the safety analysis.
The present study was a double-blind study. All patients who were randomized and for whom the sub-conjunctival injection was started are included in the safety analysis by dose group. […] If the study treatment eye drops were stopped prematurely (i.e. before day 21), the patients concerned continued follow-up until day 28, in accordance with the study protocol.
Investigators assessed (in a blinded manner) the relationship of each reported AE to any of the study treatments. An event was considered to be related to study treatment if the Investigator ticked either ‘possible’ or ‘probable’ as the reply to this question.

CC(C)C[C@@H](NC(=O)[C@@H](Cc1ccccc1)NC(=O)[C@H]1CCCN1C(=O)[C@@H](CCC(N)=O)NC(=O)[C@H](NC(=O)[C@H]1CCCN1C(=O)[C@@H](CCCNC(=N)N)NC(=O)[C@@H](CO)NC(=O)[C@@H](CCC(N)=O)NC(=O)[C@H](N)CC(=O)O)C(C)C)C(=O)N[C@H](CC(N)=O)C(=O)N[C@H](CC(C)C)C(=O)N[C@@H](C(=O)N[C@@H](C(=O)N1CCC[C@@H]1C(=O)N[C@H](CCCNC(=N)N)C(=O)N[C@H](CCCCN)C(=O)N1CCC[C@@H]1C(=O)N[C@H](CCCNC(=N)N)C(=O)N1CCC[C@@H]1C(=O)N1CCC[C@@H]1C(=O)N[C@H](CCCNC(=N)N)C(=O)N[C@H](CCCNC(=N)N)C(=O)N[C@H](CCCNC(=N)N)C(=O)N[C@H](CCC(N)=O)C(=O)N[C@H](CCCNC(=N)N)C(=O)N[C@H](CCCNC(=N)N)C(=O)N[C@H](CCCCN)C(=O)N[C@H](CCCCN)C(=O)N[C@H](CCCNC(=N)N)C(=O)NCC(=O)O)[C@H](C)O)[C@H](C)O [XG-102]
body weight [1]: no effects of XG-102 were observed | AEs possibly or probably related to study treatment as assessed by the Investigator ([2]; 90 μg XG-102 (N = 47)): 18 Total # events | AEs considered by the Investigator to be related to Dexamethasone ([2]; 90 μg XG-102 group): 2 (2.6%) Total # events (%) | AEs considered by the Investigator to be related to XG-102 ([2]; 90 μg XG-102 group): 16 (20.5%) Total # events (%) | AEs possibly or probably related to study treatment as assessed by the Investigator ([2]; 900 μg XG-102 (N = 48)): 13 Total # events | AEs considered by the Investigator to be related to Dexamethasone ([2]; 900 μg XG-102 group): 1 (1.5%) Total # events (%) | AEs considered by the Investigator to be related to XG-102 ([2]; 900 μg XG-102 group): 12 (17.4%) Total # events (%) | AEs possibly or probably related to study medication ([2]; XG-102 90 μg): 18 events | Intraocular pressure increased, patients ([2]; XG-102 90 μg): 23% | events in SOC EYE DISORDERS ([2]; XG-102 90 μg): 49 events | events resulting in premature withdrawal of study treatment eye drops ([2]; XG-102 90 μg): 11 events | patients with SAEs ([2]; XG-102 90 μg): 4 patients | patients with events in SOC EYE DISORDERS ([2]; XG-102 90 μg): 26 (55%) | percentage of patients with an AE within 24 hours after administration ([2]; XG-102 90 μg): 34% | total number of AEs reported ([2]; XG-102 90 μg): 78 | Reported AEs by severity: Mild ([2]; XG-102 90 μg dose group): 55 (70.5%) number of events (% of reported events) | Reported AEs by severity: Moderate ([2]; XG-102 90 μg dose group): 6 (7.7%) number of events (% of reported events) | Reported AEs by severity: Severe ([2]; XG-102 90 μg dose group): 17 (21.7%) number of events (% of reported events) | AEs possibly or probably related to study medication ([2]; XG-102 900 μg): 13 events | Intraocular pressure increased, patients ([2]; XG-102 900 μg): 10% | events in SOC EYE DISORDERS ([2]; XG-102 900 μg): 43 events | events resulting in premature withdrawal of study treatment eye drops ([2]; XG-102 900 μg): 8 events | patients with SAEs ([2]; XG-102 900 μg): 3 patients | patients with events in SOC EYE DISORDERS ([2]; XG-102 900 μg): 24 (50%) | percentage of patients with an AE within 24 hours after administration ([2]; XG-102 900 μg): 27% | total number of AEs reported ([2]; XG-102 900 μg): 69 | Reported AEs by severity: Mild ([2]; XG-102 900 μg dose group): 49 (71.0%) number of events (% of reported events) | Reported AEs by severity: Moderate ([2]; XG-102 900 μg dose group): 12 (17.4%) number of events (% of reported events) | Reported AEs by severity: Severe ([2]; XG-102 900 μg dose group): 8 (11.6%) number of events (% of reported events) | Eye pain ([2]; XG-102 900 μg vs dexamethasone (p=0.029)): Eye pain was more frequently reported for patients allocated to the XG-102 900 μg group
